Measured values published in PMC4212957, “The serodominant secreted effector protein of Salmonella, SseB, is a strong CD4 antigen containing an immunodominant epitope presented by diverse HLA class II alleles” (Immunology, 2014).

System: draining lymph node cells of HLA-DR4 transgenic mice
Test: Murine IFN-γ ELISpot, HLA-DR4 transgenic mice primed with SseB
Details: mouse, in vivo
Excerpt: Mice transgenic for HLA-DR1 (that is, HLA-DRA1*0101/HLA-DRB1*0101) and HLA-DR4 (that is, HLA-DRA1*0101/HLA-DRB1*0401)[24]–[26] were bred and housed in the Centre for Biological Services at the Hammersmith campus, Imperial College London, UK, in accordance with Home Office regulations and College ethics review. Both transgenic lines are maintained on a C57BL/6 background as homozygotes for knockout of murine MHC Class II H2-Aβ.[27]
HLA-DR1 or HLA-DR4 transgenic mice were primed, by subcutaneous injection into the footpad, with 25 μg of recombinant SseB protein administered as a 1 : 1 emulsion with TiterMax® Gold (CytRx Corporation, Los Angeles, CA). Ten days after priming, popliteal draining lymph nodes were harvested and stimulated, in triplicate, at 2 × 10^5 cells per well with 25 μg of SseB peptide or recombinant protein in pre-coated murine IFN-γ ELISpot plates (2BScientific, Upper Heyford, Oxfordshire, UK). Culture medium was RPMI-1640 containing 2 mM L-glutamine, 50 U/ml penicillin G, 50 μg/ml streptomycin sulphate, 50 μM β-mercaptoethanol and 10% fetal calf serum. Cells were cultured at 37° and in 5% CO2 for 72 hr before assay development using a biotinylated anti-IFN-γ antibody, a horseradish peroxidase detection antibody and TMB substrate (2BScientific). Developed plates were left to dry before spot counting using an AID ELISpot reader (Autoimmun Diagnostika GMBH). Positive epitopes for a given transgenic line were defined as those where more than half of assayed animals gave a greater number of spot-forming cells than 2 SD over the mean of the no protein/peptide control.
Fig 1 Definition of HLA-DR specific T-cell epitopes in DR1 and DR4 transgenic mice. (a) HLA-DR1 (n = 5) and (b) HLA-DR4 (n = 6) mice were footpad primed with ssEB protein in combination with TiterMax® Gold adjuvant. Draining lymph node (DLN) cells were assayed by ELISpot at day 10 for interferon-γ (IFN-γ) T-cell responses to ssEB peptides and protein. A peptide was defined as containing a T-cell epitope for DR1 or DR4 HLA molecules if more than half of the mice assayed gave a greater number of spot-forming cells than 2 SD over the mean of the no peptide/protein control. The 2 SD value for each transgenic line is shown by a dotted line.

Substance | IFN-γ ELISpot recall response / CD4 epitope in HLA-DR4 transgenic mice
11: SseB overlapping library peptide, residues 101–120 (EDVIKYMRDNGILIDGMTID) [Peptide 11] | CD4 epitopes detected
AVLTQLTGLISKWGEISSMIAQKTYS [Peptide 18, SseB overlapping library peptide, residues 171–196] | not DR4
